According to BindingDB's records for doi:10.1016/S0960-894X(00)80339-X (1993):

Target: Squalene monooxygenase (Sus scrofa)
Assay: Inhibitory concentration at which 50% decrease in the activity of Squalene epoxidase in pig liver microsomes

Row | IC50 | SMILES
1 | > 400 µM | CC(C)=CCC/C(C)=C/CC/C(C)=C/CC/C=C(\C)CC/C=C(\C)CC/C=C/[N+](=O)[O-] [(1E,5E,9E,13E,17E)-5,9,14,18,22-Pentamethyl-1-nitro-tricosa-1,5,9,13,17,21-hexaene]
2 | 13 µM | CC(C)=CCC/C(C)=C/CC/C(C)=C/CC/C=C(\C)CC/C=C(\C)CCCN(C)O [N-Methyl-N-((4E,12E,16E,20E)-4,8,13,17,21-pentamethyl-docosa-4,8,12,16,20-pentaenyl)-hydroxylamine]
